Test systems include CAKI-1 renal; HL-60(TB) leukemia; SN12C renal; MALME-3M melanoma; OVCAR-4 ovarian; UO-31 renal; TK-10 renal; COLO 205 colon; SW-620 colon.
Experiment in all cases: NCI anticancer screen, dose series, 48 h

The values below come from PubChem BioAssay (NCI).

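Interpolation was linear, between the two tested concentrations surrounding the appropriate level; five concentrations were tested over 48 hours in 96-well plates. GI50 marks 50% less growth. At the TGI there is no net growth.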

As for `C/C(CC(=O)CCC(=O)Nc1cccc(C(F)(F)F)c1)=N\NC(=O)NN`, the TGI in the assay on CAKI-1 renal, with HL-60(TB) leukemia, in the assay on SN12C renal, in the assay with MALME-3M melanoma, in the assay with OVCAR-4 ovarian and in the assay on UO-31 renal was more than 100 µM throughout. Moreover, the TGI in the assay on TK-10 renal, with COLO 205 colon and in the assay on SW-620 colon was more than 100 µM throughout.
For the compound `CC1(c2ccc(F)cc2)C(C#N)C(=O)NC(=O)C1C#N` (stereo unspecified), the TGI with CAKI-1 renal, with HL-60(TB) leukemia, in the assay with SN12C renal, in the assay with MALME-3M melanoma, in the assay with OVCAR-4 ovarian and in the assay on UO-31 renal was more than 100 µM throughout. Besides, the TGI in the assay with TK-10 renal, with COLO 205 colon and in the assay on SW-620 colon was more than 100 µM throughout.
For `O=S1(=O)c2ccccc2NC(c2ccc3ccccc3c2)CC1c1ccccc1F` (stereo unspecified), the TGI in the assay on CAKI-1 renal, with HL-60(TB) leukemia, with SN12C renal, with MALME-3M melanoma, in the assay with OVCAR-4 ovarian and with UO-31 renal was more than 100 µM each time. Further, the TGI in the assay with TK-10 renal, with COLO 205 colon and in the assay on SW-620 colon was more than 100 µM each time.
Consider `Clc1cc2nsnc2c(Cl)n1`, for which the TGI in the assay with CAKI-1 renal was determined as 24.5 µM; in the assay with HL-60(TB) leukemia it was 36.2 µM; with MALME-3M melanoma it was 31.3 µM; in the assay with OVCAR-4 ovarian, 31.3 µM; in the assay on UO-31 renal, 39.8 µM; in the assay on TK-10 renal it was 44 µM. Besides, the TGI in the assay with COLO 205 colon came out at 31.7 µM; in the assay with SW-620 colon, 27.8 µM.
Take `Cc1ccc(N=Nc2ccc(N(CCC#N)CCC#N)cc2C)c(Br)c1`: the TGI in the assay with CAKI-1 renal was 24.6 µM; in the assay with HL-60(TB) leukemia, 65.7 µM; in the assay on SN12C renal, more than 100 µM; with MALME-3M melanoma, more than 100 µM; in the assay on OVCAR-4 ovarian, more than 100 µM; with UO-31 renal, more than 100 µM. Also, the values for the TGI with TK-10 renal, with COLO 205 colon and with SW-620 colon were 66.3 µM, more than 100 µM and more than 100 µM, respectively.
Take `COc1cc(Cc2cnc(/N=C3\C(=O)N(CN4CCN(c5c(F)cc6c(=O)c(C(=O)O)cn(C7CC7)c6c5OC)CC4C)c4ccc(F)cc43)nc2N)cc(OC)c1OC` (stereo unspecified): the GI50 in the assay on CAKI-1 renal is 15.5 µM; in the assay with HL-60(TB) leukemia it was 3.28 µM; in the assay with SN12C renal, 15.6 µM; with UO-31 renal, 31.7 µM; in the assay on TK-10 renal it was 11.6 µM; in the assay on COLO 205 colon it was 15 µM. Moreover, the GI50 in the assay on SW-620 colon was 5.28 µM. The TGI in the assay on CAKI-1 renal is 36 µM; in the assay with HL-60(TB) leukemia, more than 100 µM; in the assay on SN12C renal, 31.1 µM; with UO-31 renal it was more than 100 µM; in the assay on TK-10 renal, 25.3 µM; in the assay with COLO 205 colon, 58.8 µM. The compound further yielded a TGI in the assay on SW-620 colon of 23.3 µM.
Regarding `O=C1C=C(Cl)C(=O)C(c2ccc(Cl)cc2)=C1`, the TGI in the assay with CAKI-1 renal was 35.1 µM; in the assay with HL-60(TB) leukemia it was 42.8 µM; with SN12C renal, 44.4 µM; in the assay on MALME-3M melanoma it was 39 µM; with OVCAR-4 ovarian it was 51.6 µM; in the assay on UO-31 renal, 28.5 µM. Moreover, the values for the TGI with TK-10 renal, with COLO 205 colon and in the assay with SW-620 colon were 35.9 µM, 31 µM and 89.5 µM, respectively.
As to `O=C(O)c1ccccc1[Se][Se]c1ccccc1C(=O)O`, the TGI in the assay on CAKI-1 renal is more than 100 µM; with HL-60(TB) leukemia, more than 100 µM; with SN12C renal, more than 100 µM; in the assay on MALME-3M melanoma, more than 100 µM; with UO-31 renal, 28.3 µM; in the assay with TK-10 renal, more than 100 µM. Further, the TGI in the assay with COLO 205 colon and in the assay on SW-620 colon was more than 100 µM in each case.
For the compound `COc1cc(/C=N/NC(=O)c2ccc(C(F)(F)F)nc2Nc2ccc(Cl)cc2C)ccc1O`, the GI50 was 2.23 µM with CAKI-1 renal; 1.7 µM in the assay on HL-60(TB) leukemia; 2.97 µM with SN12C renal; 2.19 µM with MALME-3M melanoma; 1.54 µM with OVCAR-4 ovarian; 1.39 µM with UO-31 renal. Besides, the GI50 was 5.13 µM in the assay on TK-10 renal, 3.25 µM in the assay with COLO 205 colon and 2.77 µM in the assay on SW-620 colon. Moreover, the TGI came to 10.8 µM in the assay on CAKI-1 renal; 4.41 µM in the assay on HL-60(TB) leukemia; 16.5 µM with SN12C renal; 10.9 µM in the assay with MALME-3M melanoma; 17 µM in the assay with OVCAR-4 ovarian; 7.76 µM in the assay on UO-31 renal. Further, the TGI with TK-10 renal was 17.3 µM; with COLO 205 colon it was 10.4 µM; with SW-620 colon, 12.1 µM.
As for `Cn1c2ccccc2c2c(Nc3ccccc3)c3ccccc3nc21`, the GI50 in the assay with CAKI-1 renal is 16.7 µM; in the assay with SN12C renal it was 16.5 µM; with MALME-3M melanoma, 15.4 µM; in the assay on OVCAR-4 ovarian, 21.1 µM; in the assay with UO-31 renal, 51.8 µM; with TK-10 renal, 15.8 µM. Moreover, the figures for the GI50 in the assay with COLO 205 colon and with SW-620 colon were 59 µM and 17.1 µM, respectively. Also, the TGI with CAKI-1 renal is 38.7 µM; in the assay with SN12C renal, 47.3 µM; with MALME-3M melanoma, 33.9 µM; in the assay with OVCAR-4 ovarian it was more than 100 µM; with UO-31 renal, more than 100 µM; in the assay on TK-10 renal, 43.8 µM. The TGI with COLO 205 colon is more than 100 µM; in the assay on SW-620 colon, 58.3 µM.
Regarding `O=CC[C@H]1C(=O)C[C@@H]2CCC[C@@H]21`, the TGI in the assay on CAKI-1 renal, with HL-60(TB) leukemia, in the assay with SN12C renal, in the assay with MALME-3M melanoma, with OVCAR-4 ovarian and with TK-10 renal was more than 100 µM each time. In addition, the TGI with COLO 205 colon and in the assay with SW-620 colon was more than 100 µM each time.
As for `CCCCCCCCCCCOc1ccc(C(=O)C(=O)c2ccc(OCCCCCCCCCCC)c(OCCCCCCCCCCC)c2)cc1OCCCCCCCCCCC`, the TGI in the assay with CAKI-1 renal, with HL-60(TB) leukemia, with SN12C renal, in the assay on MALME-3M melanoma, with OVCAR-4 ovarian and in the assay with UO-31 renal was more than 100 µM throughout. For the same compound, the TGI in the assay with TK-10 renal, with COLO 205 colon and with SW-620 colon was more than 100 µM each time.
